Among the data in US20230265105A1, “MACROCYCLIC 7-PYRAZOL-5-YL-INDOLE DERIVATIVES AS INHIBITORS OF MCL-1” (Janssen Pharmaceutica NV, priority 2020, published 2023) are AC50 and Ki values, retold here.

Test [1] deals with MOLP-8 human multiple myeloma cell line. Briefly: MOLP8 Caspase-Glo 3/7 apoptosis induction assay. It counts as cell-based. As to conditions: MOLP-8 cells, 2 hours at 37° C., 30 μM highest conc., averaged over all runs on all batches. An excerpt: MCL-1 is a regulator of apoptosis and is highly over-expressed in tumor cells that escape cell death. The assay evaluates the cellular potency of small-molecule compounds targeting regulators of the apoptosis pathway, primarily MCL-1, Bfl-1, Bcl-2, and other proteins of the Bcl-2 family. Protein-protein inhibitors disrupting the interaction of anti-apoptotic regulators with BH3-domain proteins initiate apoptosis.
The Caspase-Glo® 3/7 Assay is a luminescent assay that measures caspase-3 and -7 activities in purified enzyme preparations or cultures of adherent or suspension cells. The assay provides a proluminescent caspase-3/7 substrate, which contains the tetrapeptide sequence DEVD. This substrate is cleaved to release aminoluciferin, a substrate of luciferase used in the production of light. Addition of the single Caspase-Glo® 3/7 Reagent in an “add-mix-measure” format results in cell lysis, followed by caspase cleavage of the substrate and generation of a “glow-type” luminescent signal.
This assay uses the MOLP-8 human multiple myeloma cell line, which is sensitive to MCL-1 inhibition.
Cell cultures were maintained between 0.2 and 2.0×10^6 cells/mL. The cells were harvested by collection in 50 mL conical tubes. The cells were then pelleted at 500 g for 5 mins before removing supernatant and resuspension in fresh pre-warmed culture medium. The cells were counted and diluted as needed.
The assay reagent was prepared by transferring the buffer solution to the substrate vial and mixing. The solution may be stored for up to 1 week at 4° C. with negligible loss of signal.
Compounds were delivered in assay-ready plates (Proxiplate) and stored at −20° C.
Assays always include 1 reference compound plate containing reference compounds. The plates were spotted with 40 nL of compounds (0.5% DMSO final in cells; serial dilution; 30 μM highest conc. 1/3 dilution, 10 doses, duplicates). The compounds were used at room temperature and 4 μL of pre-warmed media was added to all wells except column 2 and 23. The negative control was prepared by adding 1% DMSO in media. The positive control was prepared by adding the appropriate positive control compound in final concentration of 60 μM in media. The plate was prepared by adding 4 μL negative control to column 23, 4 μL positive control to column 2 and 4 μL cell suspension to all wells in the plate. The plate with cells was then incubated at 37° C. for 2 hours. The assay signal reagent is the Caspase-Glo solution described above, and 8 μL was added to all wells. The plates were then sealed and measured after 30 minutes.
The activity of a test compound was calculated as percent change in apoptosis induction as follows:
[formula] [formula] % Effect (AC50)=100−((sample−LC)/(HC−LC))*100
% Control=(sample/HC)*100
% Control min=(sample−LC)/(HC−LC)*100

In test [2] the target is Myeloid Cell Leukemia 1 (Mcl-1) (Homo sapiens, UniProt Q07820). Briefly: Terbium labeled Mcl-1 HTRF binding assay with Cy5-labeled BIM BH3 peptide. The following applies: Ki=IC50/(1+[L]/Kd), [L]=8 nM, Kd=10 nM, 60 min incubation at room temperature, read-out: Tb-MCL1 Ki. The method, then: Terbium labeled Myeloid Cell Leukemia 1 (Mcl-1) homogeneous time-resolved fluorescence (HTRF) binding assay utilizing the BIM BH3 peptide (H2N-(C/Cy5Mal) WIAQELRRIGDEFN-OH) as the binding partner for Mcl-1.
Sequence of Myeloid Cell Leukemia 1 (Mcl-1) (Q07820 whole entry, the tested form may be a part): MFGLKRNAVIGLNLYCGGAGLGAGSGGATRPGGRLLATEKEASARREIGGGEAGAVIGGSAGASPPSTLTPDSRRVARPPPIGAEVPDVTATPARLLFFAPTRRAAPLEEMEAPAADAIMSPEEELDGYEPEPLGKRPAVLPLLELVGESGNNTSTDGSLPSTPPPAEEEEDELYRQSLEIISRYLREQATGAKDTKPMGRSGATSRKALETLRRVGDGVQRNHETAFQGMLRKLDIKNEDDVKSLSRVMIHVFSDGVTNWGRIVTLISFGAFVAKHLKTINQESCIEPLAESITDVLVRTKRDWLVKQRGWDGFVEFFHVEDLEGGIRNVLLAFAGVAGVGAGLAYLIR
This assay evaluated inhibition of the BH3 domain: Mcl-1 interaction by measuring the displacement of Cy5-labeled BIM BH3 peptide (H2N—(C/Cy5Mal) WIAQELRRIGDEFN-OH) in the HTRF assay format.
The following assay and stock buffers were prepared for use in the assay: (a) Stock buffer: 10 mM Tris-HCl, pH=7.5+150 mM NaCl, filtered, sterilized, and stored at 4° C.; and (b) 1×assay buffer, where the following ingredients were added fresh to stock buffer: 2 mM dithiothreitol (DTT), 0.0025% Tween-20, 0.1 mg/mL bovine serum albumin (BSA). The 1×Tb-Mcl-1+Cy5 Bim peptide solution was prepared by diluting the protein stock solution using the 1×assay buffer (b) to 25 pM Tb-Mcl-1 and 8 nM Cy5 Bim peptide.
Using the Acoustic ECHO, 100 nL of 100×test compound(s) were dispensed into individual wells of a white 384-well Perkin Elmer Proxiplate, for a final compound concentration of 1× and final DMSO concentration of 1%. Inhibitor control and neutral control (NC, 100 nL of 100% DMSO) were stamped into columns 23 and 24 of assay plate, respectively. Into each well of the plate was then dispensed 10 μL of the 1×Tb-Mcl-1+Cy5 Bim peptide solution. The plate was centrifuged with a cover plate at 1000 rpm for 1 minute, then incubated for 60 minutes at room temperature with plates covered.
The TR-FRET signal was read on an BMG PHERAStar FSX MicroPlate Reader at room temperature using the HTRF optic module (HTRF: excitation: 337 nm, light source: laser, emission A: 665 nm, emission B: 620 nm, integration start: 60 μs, integration time: 400 μs).
The BMG PHERAStar FSX MicroPlate Reader was used to measure fluorescence intensity at two emission wavelengths—665 nm and 620 nm—and report relative fluorescence units (RFU) for both emissions, as well as a ratio of the emissions (665 nm/620 nm)*10,000. The RFU values were normalized to percent inhibition as follows:
% inhibition=(((NC−IC)−(compound−IC))/(NC−IC))*100
where IC (inhibitor control, low signal)=mean signal of 1×Tb-MCl-1+Cy5 Bim peptide+inhibitor control or 100% inhibition of Mcl-1; NC (neutral control, high signal)=mean signal 1×Tb-MCl-1+Cy5 Bim peptide with DMSO only or 0% inhibition
An 11-point dose response curve was generated to determine IC50 values (using GenData) based on the following equation:
Y=Bottom+(Top−Bottom)/(1+10^((log IC50−X)*HillSlope))
where Y=% inhibition in the presence of X inhibitor concentration; Top=100% inhibition derived from the IC (mean signal of Mcl-1+inhibitor control); Bottom=0% inhibition derived from the NC (mean signal of Mcl-1+DMSO); Hillslope=Hill coefficient; and IC50=concentration of compound with 50% inhibition in relation to top/neutral control (NC).
In this assay [L]=8 nM and Kd=10 nM
Representative compounds of the present invention were tested according to the procedure as described above, with results as listed in the Table below (n.d. means not determined).
(In TR-FRET formats the signal depends on donor and acceptor labels being close together.)

In test [1], `Cn1nc2cc1CCc1cc(c3ccc(F)cc3c1)OCCCc1c(C(=O)O)[nH]c3c(c(Cl)ccc13)-c1c(cnn1C)CSC2` (single isomer, unassigned) [Compound 25] displayed an AC50 of 4130 nM. Besides, the Ki in test [2] is 0.807 nM.
For `Cc1nn(C)c2c1CSCc1cc(n(C)n1)CCc1cc(c3ccc(F)cc3c1)OCCCc1c(C(=O)O)n(C)c3c-2c(Cl)ccc13` (single isomer, unassigned) [Compound 10a], in that order: 68 nM and 0.041 nM.
`COCCOCc1nn(C)c2c1CSCc1cc(n(C)n1)CCc1cc(c3ccccc3c1)OCCCc1c(C(=O)O)n(C)c3c-2c(Cl)ccc13` (single isomer, unassigned) [Compound 3] returned an AC50 in test [1] of over 30000 nM. Also, the Ki in test [2] amounted to 98.2 nM.
In test [1] (Homo sapiens, MOLP-8, 2 h), `Cn1nc2cc1CSc1cc(c3ccccc3c1)OCCCc1c(C(=O)O)n(C)c3c(c(Cl)ccc13)-c1c(cnn1C)CSC2` (single isomer, unassigned) [Compound 6] displayed an AC50 of 58 nM. The Ki in test [2] came out at 0.062 nM.
Turning to `COCCOCc1nn(C)c2c1CSCc1cc(n(C)n1)CCc1cc(c3ccc(F)cc3c1)OCCCc1c(C(=O)O)n(C)c3c-2c(Cl)ccc13` (single isomer, unassigned) [Compound 8], half-maximal activity in test [1] (AC50) was put at 15 nM. In test [2], the inhibition constant (Ki) was determined as 0.025 nM.
For `Cc1nn(C)c2c1CSCc1cc(n(C)n1)CCc1cc(c3ccccc3c1)OCCCc1c(C(=O)O)n(C)c3c-2c(Cl)ccc13` (single isomer, unassigned) [Compound 11], in that order: 1620 nM and 3.02 nM.
`COCCOCc1nn(C)c2c1CSCc1cc(n(C)n1)CCc1cc(c3ccc(F)cc3c1)OCCCc1c(C(=O)O)n(C)c3c-2c(Cl)ccc13` (single isomer, unassigned) [Compound 7] yielded an AC50 in test [1] of 20400 nM. For the same compound, the Ki in test [2] stood at 52.3 nM.
For `COCCOCc1nn(C)c2c1CSCc1cc(n(C)n1)CCc1cc(c3ccc(F)c(F)c3c1)OCCCc1c(C(=O)O)n(C)c3c-2c(Cl)ccc13` (single isomer, unassigned) [Compound 16], in that order: 13 nM and 0.021 nM.
Take `Cc1nn(C)c2c1CSCc1cc(n(C)n1)CCc1cc(c3ccc(F)cc3c1)OCCCc1c(C(=O)O)n(C)c3c-2c(Cl)ccc13` (single isomer, unassigned) [Compound 9]: in test [1], the AC50 amounted to 8960 nM. In test [2], the Ki was found to be 18.7 nM.
In the same order, the values of `COCCOCCc1nn(C)c2c1CSCc1cc(n(C)n1)CCc1cc(c3ccc(F)cc3c1)OCCCc1c(C(=O)O)n(C)c3c-2c(Cl)ccc13` (single isomer, unassigned) [Compound 17] are 15 nM and 0.011 nM.
In the same order, the values of `COCCn1c(C(=O)O)c2c3ccc(Cl)c(c31)-c1c(cnn1C)CSCc1cc(n(C)n1)CCc1cc(c3ccc(F)cc3c1)OCCC2` (single isomer, unassigned) [Compound 24] are 2530 nM and 2.15 nM.
Turning to `COCCOCCn1c(C(=O)O)c2c3ccc(Cl)c(c31)-c1c(cnn1C)CSCc1cc(n(C)n1)CCc1cc(c3ccc(F)cc3c1)OCCC2` (single isomer, unassigned) [Compound 20], half-maximal activity in test [1] (AC50) was put at 30000 nM. Moreover, in test [2], the Ki amounted to 200 nM.
For `COCCOCc1nn(C)c2c1CSCc1cc(n(C)n1)CCc1cc(c3ccccc3c1)OCCCc1c(C(=O)O)n(C)c3c-2c(Cl)ccc13` (single isomer, unassigned) [Compound 4], in that order: 46 nM and 0.023 nM.
In the case of `COCCOCc1nn(C)c2c1CSCc1cc(n(C)n1)CCc1cc(c3ccc(F)c(F)c3c1)OCCCc1c(C(=O)O)n(C)c3c-2c(Cl)ccc13` (single isomer, unassigned) [Compound 15], half-maximal activity in test [1] (AC50) was put at 1400 nM. In test [2], the inhibitory constant (Ki) was 2.58 nM.
`Cn1nc2cc1CCc1cc(c3ccc(F)cc3c1)OCCCc1c(C(=O)O)n(CCN3CCOCC3)c3c(c(Cl)ccc13)-c1c(cnn1C)CSC2` (single isomer, unassigned) [Compound 21] had a half-maximal activity concentration (AC50) in test [1] of 82 nM. In test [2], the Ki is 0.02 nM.
For `COCCn1c(C(=O)O)c2c3ccc(Cl)c(c31)-c1c(cnn1C)CSCc1cc(n(C)n1)CCc1cc(c3ccc(F)cc3c1)OCCC2` (single isomer, unassigned) [Compound 23], in that order: 27 nM and 0.024 nM.
With `Cc1nn(C)c2c1CSCc1cc(n(C)n1)CCc1cc(c3ccccc3c1)OCCCc1c(C(=O)O)n(C)c3c-2c(Cl)ccc13` (single isomer, unassigned) [Compound 11a], the AC50 in test [1] stood at 2380 nM. In addition, in test [2], the Ki amounted to 3.68 nM.
For `Cc1nn(C)c2c1CSCc1cc(n(C)n1)CSc1cc(c3ccccc3c1)OCCCc1c(C(=O)O)n(C)c3c-2c(Cl)ccc13` (single isomer, unassigned) [Compound 1], in that order: 1220 nM and 0.746 nM.
For `CCn1c(C(=O)O)c2c3ccc(Cl)c(c31)-c1c(cnn1C)CCCc1cc(n(C)n1)CCc1cc(c3ccc(F)cc3c1)OCCC2` (single isomer, unassigned) [Compound 14], in that order: 3460 nM and 6.15 nM.
In test [1], `Cn1nc2cc1CCc1cc(c3ccc(F)cc3c1)OCCCc1c(C(=O)O)[nH]c3c(c(Cl)ccc13)-c1c(cnn1C)CSC2` (single isomer, unassigned) [Compound 26] displayed an AC50 of 235 nM. Besides, the inhibition constant Ki in test [2] was 0.045 nM.
With `Cc1nn(C)c2c1CSCc1cc(n(C)n1)CSc1cc(c3ccccc3c1)OCCCc1c(C(=O)O)n(C)c3c-2c(Cl)ccc13` (single isomer, unassigned) [Compound 2], in test [1], half-maximal activity (AC50) was put at 54 nM. In addition, the Ki in test [2] was 0.039 nM.
In the same order, the values of `Cn1nc2cc1CCc1cc(c3ccc(F)cc3c1)OCCCc1c(C(=O)O)n(CCN3CCOCC3)c3c(c(Cl)ccc13)-c1c(cnn1C)CSC2` (single isomer, unassigned) [Compound 19] are 29500 nM and 50.1 nM.

Usually AC50 stands for the concentration at which the activity in the assay is half-maximal. High values mean activity only at high concentration, low ones activity at low concentration. As a reminder, the Ki is the dissociation constant of the complex between target and ligand, obtained from inhibition or displacement.
